According to patent US5001118A, “Method for preventing senescence and increasing bone mass” (priority 1986, dated 1991):

Test system: ICR type mice
Assay: Inspection of urine, daily oral administration
Format: in vivo, mouse (ICR type)
Set-up: key: .dwnarw.: Decrease below control; →: No difference from control; .uparw.: Increase above control
Experimental: Solutions obtained by dissolving the present substance, 24R,25-(OH)2 -D3 in a prescribed concentration in triglyceride of a fatty acid of 8 to 10 carbon atoms containing 1% of ethanol were administered respectively, orally, forcedly and daily to three male-groups and three female-groups of ICR type mice 5 weeks old at dosages of 10, 100, and 1,000 μg/kg.day. The results are compared below with respect to the following items with those obtained of the male- and female-groups using only the solvent without the present substance.

C=C1CC[C@H](O)C/C1=C/C=C1\CCC[C@]2(C)[C@@H]([C@H](C)CC[C@@H](O)C(C)(C)O)CC[C@@H]12 [24R,25-(OH)2 -D3]
→: Urine ketone body (female, 10 μg/kg) | Urine occult blood (female, 10 μg/kg) | Urine pH (female, 10 μg/kg) | Urine protein (female, 10 μg/kg) | Urine sugar (female, 10 μg/kg) | Urobilinogen (female, 10 μg/kg) | Urine ketone body (female, 100 μg/kg) | Urine occult blood (female, 100 μg/kg) | Urine pH (female, 100 μg/kg) | Urine protein (female, 100 μg/kg) | Urine sugar (female, 100 μg/kg) | Urobilinogen (female, 100 μg/kg) | Urine ketone body (female, 1000 μg/kg) | Urine occult blood (female, 1000 μg/kg) | Urine pH (female, 1000 μg/kg) | Urine protein (female, 1000 μg/kg) | Urine sugar (female, 1000 μg/kg) | Urobilinogen (female, 1000 μg/kg) | Urine ketone body (male, 10 μg/kg) | Urine occult blood (male, 10 μg/kg) | Urine pH (male, 10 μg/kg) | Urine protein (male, 10 μg/kg) | Urine sugar (male, 10 μg/kg) | Urobilinogen (male, 10 μg/kg) | Urine ketone body (male, 100 μg/kg) | Urine occult blood (male, 100 μg/kg) | Urine pH (male, 100 μg/kg) | Urine protein (male, 100 μg/kg) | Urine sugar (male, 100 μg/kg) | Urobilinogen (male, 100 μg/kg) | Urine ketone body (male, 1000 μg/kg) | Urine occult blood (male, 1000 μg/kg) | Urine pH (male, 1000 μg/kg) | Urine protein (male, 1000 μg/kg) | Urine sugar (male, 1000 μg/kg) | Urobilinogen (male, 1000 μg/kg)
